The subject of one test is CCRF-CEM. In words: Compound was evaluated for its toxicity by […] assay in CEM. Type of test: functional, cell-based. The settings on record: Homo sapiens.
Test [1] in a line: Compound was evaluated for its toxicity by […] assay in PBM. Type of test: functional, Homo sapiens.
A short description of test [2]: Antiviral activity against human immunodeficiency virus type-1 (HIV-1) in PBM cells. The class given is functional, cell-based. The settings on record: PBMC.
Another test concerns Human alphaherpesvirus 1. The test can be described thus: Antiviral activity against Herpes simplex virus type-1. Type of test: functional, organism-based.
The next test relates to Human alphaherpesvirus 2. In words: Antiviral activity against Herpes simplex virus type-2. Type of test: functional, organism-based.
The test system of another test is Vero. The test can be described thus: Compound was evaluated for its toxicity by […] assay in vero cells. The class given is functional, cell-based. As to conditions: Chlorocebus sabaeus.
The subject of a further test is Hepatitis B virus. In words: Antiviral activity against Hepatitis-B virus 2.2.15(HBV). As to conditions: HepG2 2.2.15. The class given is functional, organism-based.

`Nc1nc(=O)n([C@H]2O[C@@H](CO)[C@H](O)C2(F)F)cc1I`: the half-inhibitory concentration (IC50) (with CCRF-CEM; in test [1]; in the test on Vero) was over 100 µM throughout. For the same molecule, the concentration for a half-maximal effect (EC50) in test [2] is over 100 µM; in the test with Human alphaherpesvirus 1, over 100 µM; in the test on Human alphaherpesvirus 2, over 100 µM; with Hepatitis B virus, over 10 µM.
As for `O=c1[nH]c(=O)n([C@H]2O[C@@H](CO)[C@H](O)C2(F)F)cc1F`, the IC50 (in the test with CCRF-CEM; in test [1]; in the test with Vero) was over 100 µM each time. Besides, the EC50 in test [2] is over 100 µM; in the test on Human alphaherpesvirus 1, over 100 µM; in the test with Human alphaherpesvirus 2, over 100 µM; in the test with Hepatitis B virus it was over 10 µM.
Consider `Nc1ncnc2c1ncn2[C@@H]1O[C@@H](CO)[C@H](O)C1(F)F`, for which the concentration for half-maximal inhibition (IC50) (in the test with CCRF-CEM; in test [1]; in the test on Vero) was over 100 µM in each case. The EC50 in test [2] is over 100 µM; with Human alphaherpesvirus 1 it was over 100 µM; in the test with Human alphaherpesvirus 2 it was over 100 µM; in the test on Hepatitis B virus it was over 20 µM.
For the molecule `O=c1[nH]c(=O)n([C@@H]2O[C@@H](CO)[C@H](O)C2(F)F)cc1F`, the IC50 in the test on CCRF-CEM is over 100 µM; in test [1] it was over 100 µM; with Vero it was 100 µM. In addition, the EC50 in test [2] was over 100 µM; in the test with Human alphaherpesvirus 1 it was over 100 µM; with Human alphaherpesvirus 2, over 100 µM; with Hepatitis B virus, over 10 µM.
Regarding `Nc1nc(=O)n([C@@H]2O[C@@H](CO)[C@H](O)C2(F)F)cc1I`, the IC50 (with CCRF-CEM; in test [1]; with Vero) was over 100 µM each time. Also, the concentration giving a half-maximal response (EC50) is over 100 µM in test [2], over 100 µM with Human alphaherpesvirus 1, over 100 µM with Human alphaherpesvirus 2 and over 10 µM with Hepatitis B virus.
As to `Cc1cn([C@H]2C[C@H](N=[N+]=[N-])[C@@H](CO)O2)c(=O)[nH]c1=O` [ZIDOVUDINE], the IC50 was 13 µM in the test on CCRF-CEM, over 100 µM in test [1] and 29 µM in the test on Vero. Besides, the EC50 in test [2] is 0.004 µM; in the test on Human alphaherpesvirus 1, over 100 µM; in the test with Human alphaherpesvirus 2, over 100 µM; in the test with Hepatitis B virus, over 10 µM.
With `Nc1ncnc2c1ncn2[C@H]1O[C@@H](CO)[C@H](O)C1(F)F`, the half-maximal inhibitory concentration (IC50) (in the test with CCRF-CEM; in test [1]; in the test with Vero) was over 100 µM in each case. Moreover, the EC50 is 3.4 µM in test [2], over 100 µM in the test on Human alphaherpesvirus 1, over 100 µM with Human alphaherpesvirus 2 and over 20 µM in the test with Hepatitis B virus.

What is called IC50 is the concentration at which inhibition is half-maximal. Higher therefore signals weaker potency in that assay. In general, EC50 refers to the concentration at which the effect is half-maximal.

The values above are taken from ChEMBL document CHEMBL1130219, “Structure-activity relationships of 2'-deoxy-2',2'-difluoro-L-erythro-pentofuranosyl nucleosides” (J Med Chem, 1997).
